Data as given in ChEMBL document CHEMBL3045258, “Benzimidazole, Benzoxazole and Benzothiazole Derivatives as 5HT2B Receptor Ligands. Synthesis and Preliminary Pharmacological Evaluation” (Med Chem Res, 2005).
Calls of active or inactive are those of the source. The calls are words filed in the database; no cut-off is given here.

Legend:
[1] = target: 5-hydroxytryptamine receptor 2B (Rattus norvegicus) (UniProt P30994); assay: Antagonist activity at 5-HT2B in Rattus norvegicus CD (rat) stomach fundus sections assessed as inhibition of serotonin-induced contractile response at 10 '-5 M after 1 hr
[2] = target: 5-hydroxytryptamine receptor 2B (Rattus norvegicus) (UniProt P30994); assay: Non-surmountable antagonist activity at 5-HT2B in Rattus norvegicus CD (rat) stomach fundus sections assessed as inhibition of serotonin-induced contractile response after 1 hr
[3] = target: T1, 5-hydroxytryptamine receptor 2C (Rattus norvegicus) (UniProt P08909); assay: Displacement of [3H]mesulergine from 5-HT2C in Rattus norvegicus CD (rat) […] sections at 10 uM after 1 hr
T1 sequence (whole entry): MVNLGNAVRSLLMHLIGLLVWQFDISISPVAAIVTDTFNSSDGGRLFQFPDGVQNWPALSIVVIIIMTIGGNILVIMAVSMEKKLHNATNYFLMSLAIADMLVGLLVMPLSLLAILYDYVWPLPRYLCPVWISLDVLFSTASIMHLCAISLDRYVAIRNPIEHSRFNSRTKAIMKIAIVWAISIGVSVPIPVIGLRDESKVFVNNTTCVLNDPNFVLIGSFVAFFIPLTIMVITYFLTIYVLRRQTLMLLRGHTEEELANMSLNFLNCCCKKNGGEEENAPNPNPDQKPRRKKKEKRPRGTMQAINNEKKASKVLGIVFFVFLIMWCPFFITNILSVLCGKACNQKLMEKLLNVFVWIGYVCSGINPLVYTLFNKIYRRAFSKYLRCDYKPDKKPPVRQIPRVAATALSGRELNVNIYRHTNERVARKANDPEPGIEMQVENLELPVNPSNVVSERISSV

[4] = target: 5-hydroxytryptamine receptor 2A (Rattus norvegicus) (UniProt P14842); assay: Displacement of [3H]ketansarin from 5-HT2A in Rattus norvegicus CD (rat) […] sections at 10 uM after 1 hr
[5] = target: 5-hydroxytryptamine receptor 2B (Rattus norvegicus) (UniProt P30994); assay: Binding affinity to 5-HT2B in Rattus norvegicus CD (rat) stomach fundus sections after 1 hr

5-hydroxytryptamine receptor 2B (Rattus norvegicus), sequence (P30994 whole entry): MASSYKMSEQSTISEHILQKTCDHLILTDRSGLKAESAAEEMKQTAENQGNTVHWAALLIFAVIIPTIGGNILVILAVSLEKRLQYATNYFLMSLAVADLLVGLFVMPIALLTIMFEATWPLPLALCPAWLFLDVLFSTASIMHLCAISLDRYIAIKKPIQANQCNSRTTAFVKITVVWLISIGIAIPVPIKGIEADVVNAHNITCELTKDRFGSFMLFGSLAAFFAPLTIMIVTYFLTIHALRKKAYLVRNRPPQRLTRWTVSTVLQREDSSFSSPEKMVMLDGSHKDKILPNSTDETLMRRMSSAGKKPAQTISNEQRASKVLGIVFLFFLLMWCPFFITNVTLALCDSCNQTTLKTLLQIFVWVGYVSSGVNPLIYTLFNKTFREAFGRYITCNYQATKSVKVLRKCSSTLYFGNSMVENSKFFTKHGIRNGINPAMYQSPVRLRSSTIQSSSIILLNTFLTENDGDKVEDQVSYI
5-hydroxytryptamine receptor 2A (Rattus norvegicus), sequence (P14842 whole entry): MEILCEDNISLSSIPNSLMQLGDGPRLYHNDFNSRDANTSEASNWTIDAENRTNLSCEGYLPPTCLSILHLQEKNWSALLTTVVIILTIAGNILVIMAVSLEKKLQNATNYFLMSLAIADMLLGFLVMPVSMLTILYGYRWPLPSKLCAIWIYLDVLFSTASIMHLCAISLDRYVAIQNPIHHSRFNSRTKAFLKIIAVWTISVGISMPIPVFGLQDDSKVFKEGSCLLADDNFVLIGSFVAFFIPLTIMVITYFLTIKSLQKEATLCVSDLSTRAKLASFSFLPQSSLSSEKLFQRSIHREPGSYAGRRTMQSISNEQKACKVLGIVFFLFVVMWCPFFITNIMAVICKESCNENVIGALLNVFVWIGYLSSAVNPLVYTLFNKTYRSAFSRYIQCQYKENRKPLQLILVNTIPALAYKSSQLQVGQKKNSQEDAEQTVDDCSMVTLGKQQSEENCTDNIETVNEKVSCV

| inhibition [1] | inhibition [2] | Activity [3] [%] | Activity [4] [%] | pKb [5] | Compound |
| --- | --- | --- | --- | --- | --- |
|  |  |  |  | 7.74 | COC(=O)[C@@H]1[C@H]2C[C@H]3c4[nH]c5ccccc5c4CCN3C[C@@H]2CC[C@@H]1O |
|  | inactive | < 5 | < 5 | 5.23 | c1ccc(CCc2nc3ccccc3o2)cc1 |
| inactive | inactive | < 5 | < 5 | < 5 | OC(Cc1ccccc1)c1nc2ccccc2o1 (configuration not stated) |
| inactive | inactive | < 5 | < 5 | < 5 | NCc1nc2ccccc2[nH]1 |
| inactive | inactive | < 5 | < 5 | < 5 | COc1ccc(CC(O)c2nc3ccccc3[nH]2)cc1OC (configuration not stated) |
|  | inactive | < 5 | < 5 | 5.58 | O=C(Cc1ccccc1)c1cc2ccccc2[nH]1 |
|  | inactive | < 5 | < 5 | 5.61 | COc1ccc(CCc2nc3ccccc3s2)cc1OC |
|  | inactive | < 5 | < 5 | 5.16 | COc1ccc(CC(O)c2nc3ccccc3s2)cc1OC (configuration not stated) |
|  | inactive | < 5 | < 5 | 5.84 | COc1ccc(CCc2nc3ccccc3[nH]2)cc1OC |
|  | inactive | < 5 | < 5 | 5.1 | COc1ccc(CC(O)c2nc3ccccc3o2)cc1OC (configuration not stated) |
|  | inactive | < 5 | < 5 | < 5 | OC(Cc1ccccc1)c1cc2ccccc2[nH]1 (configuration not stated) |
|  | inactive | < 5 | < 5 | 5.25 | OC(Cc1ccccc1)c1nc2ccccc2s1 (configuration not stated) |
| inactive | inactive | < 5 | < 5 | < 5 | CCNCc1nc2ccccc2[nH]1 |
|  | inactive | < 5 | < 5 | 5.15 | c1ccc(CCc2nc3ccccc3s2)cc1 |
|  | inactive | < 5 | < 5 | 5.59 | COc1ccc(CCc2nc3ccccc3o2)cc1OC |
|  | inactive | < 5 | < 5 | 5.16 | OC(Cc1ccccc1)c1nc2ccccc2[nH]1 (configuration not stated) |
|  | inactive | < 5 | < 5 | 5.29 | c1ccc(CCc2nc3ccccc3[nH]2)cc1 |
|  |  |  |  | 9.17 | COc1ccc(CC2NCCc3c2[nH]c2ccccc32)cc1OC (configuration not stated) |
|  | inactive | < 5 | < 5 | < 5 | O/N=C(\Cc1ccccc1)c1cc2ccccc2[nH]1 |

| Compound | inhibition [1] | inhibition [2] | Activity [3] [%] | Activity [4] [%] | pKb [5] |
| --- | --- | --- | --- | --- | --- |
| NC(Cc1ccccc1)c1nc2ccccc2s1 (configuration not stated) | inactive | inactive | < 5 | < 5 | < 5 |
| CCNC(Cc1ccccc1)c1nc2ccccc2[nH]1 (configuration not stated) |  | inactive | < 5 | < 5 | 5.84 |
| NC(Cc1ccccc1)c1cc2ccccc2[nH]1 (configuration not stated) |  | inactive | < 5 | < 5 | < 5 |
| NC(Cc1ccccc1)c1nc2ccccc2[nH]1 (configuration not stated) | inactive | inactive | < 5 | < 5 | < 5 |
